Results on eleven compounds are retold here after publication PMC8118430, “Utility of novel 2-furanones in synthesis of other heterocyclic compounds having anti-inflammatory activity with dual COX2/LOX inhibition” (Journal of Enzyme Inhibition and Medicinal Chemistry, 2021).

Broadly, the IC50 is the concentration that inhibits the measured activity by half. As usually defined, the melting point is the temperature, or range, at which the solid turns liquid.

Where only a bound is given, the exact number is not on record here.

One data set has as its target T1, TNF-α (Homo sapiens, UniProt P01375).
T1 construct: purchased BPS Bioscience 79756
Put plainly: TNFR2: TNF-α [biotinylated] inhibitor screening assay. In kind it is binding. Particulars: mean ± SD of three experiments. The method, then:
The assay was performed in triplicates using TNFR2: TNF-α [biotinylated] […] First, TNFR2 is coated on a 96-well plate. Next, biotinylated TNF-α is incubated with TNFR2 on the plate. Finally, the plate was treated with streptavidin-HRP followed by addition of an HRP substrate to produce chemiluminescence, which can be measured using a chemiluminescence reader.

In a further data set the target is T2, COX-1 (Ovis aries, UniProt P05979).
T2 sequence (P05979 25-600): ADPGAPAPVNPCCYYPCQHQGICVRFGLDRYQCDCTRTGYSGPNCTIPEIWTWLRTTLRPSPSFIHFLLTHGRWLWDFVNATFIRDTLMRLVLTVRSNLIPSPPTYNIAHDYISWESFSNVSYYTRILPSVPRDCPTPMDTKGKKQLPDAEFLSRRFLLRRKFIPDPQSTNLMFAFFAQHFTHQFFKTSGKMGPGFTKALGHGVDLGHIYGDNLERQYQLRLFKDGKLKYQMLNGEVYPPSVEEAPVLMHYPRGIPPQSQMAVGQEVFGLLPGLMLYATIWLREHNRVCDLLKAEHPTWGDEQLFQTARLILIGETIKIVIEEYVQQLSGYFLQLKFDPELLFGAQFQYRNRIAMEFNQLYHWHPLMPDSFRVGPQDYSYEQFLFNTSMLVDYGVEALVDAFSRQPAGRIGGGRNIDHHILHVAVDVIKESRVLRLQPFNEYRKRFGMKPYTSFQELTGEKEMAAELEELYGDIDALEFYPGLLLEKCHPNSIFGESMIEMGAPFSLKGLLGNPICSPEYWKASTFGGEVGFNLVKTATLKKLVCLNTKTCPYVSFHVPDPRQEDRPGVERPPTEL
Put plainly: Cyclooxygenase COX-1 inhibition assay (Cayman COX inhibitor screening kit, EIA).

For a further data set, the target named is T3, COX-2 (Homo sapiens, UniProt P35354).
T3 sequence (P35354 18-604): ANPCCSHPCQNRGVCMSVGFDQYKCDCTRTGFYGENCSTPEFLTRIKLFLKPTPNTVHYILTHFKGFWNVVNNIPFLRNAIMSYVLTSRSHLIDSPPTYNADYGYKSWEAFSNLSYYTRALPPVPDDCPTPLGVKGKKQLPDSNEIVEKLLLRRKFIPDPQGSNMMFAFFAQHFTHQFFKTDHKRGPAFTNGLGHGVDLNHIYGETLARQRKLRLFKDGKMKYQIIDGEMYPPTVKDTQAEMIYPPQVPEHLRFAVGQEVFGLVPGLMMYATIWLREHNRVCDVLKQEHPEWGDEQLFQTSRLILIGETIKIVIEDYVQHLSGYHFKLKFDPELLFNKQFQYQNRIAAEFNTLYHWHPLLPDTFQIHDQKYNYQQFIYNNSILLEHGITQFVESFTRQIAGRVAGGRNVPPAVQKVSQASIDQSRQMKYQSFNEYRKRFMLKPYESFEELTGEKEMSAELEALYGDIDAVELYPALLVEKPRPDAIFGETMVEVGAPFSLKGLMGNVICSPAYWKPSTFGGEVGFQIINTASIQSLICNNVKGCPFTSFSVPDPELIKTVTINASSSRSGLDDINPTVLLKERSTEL
Put plainly: Cyclooxygenase COX-2 inhibition assay (Cayman COX inhibitor screening kit, EIA). Particulars: for Selectivity indexes (SI): SI = IC50 COX-1/COX-2 ratios; for COX-2 inhibition, in words (SAR discussion): qualitative statement.

The target in another data set is T4, 15-LOX (Glycine max, UniProt P08170).
T4 construct: purchased Cayman Chemical 760700
T4 sequence (P08170 1-839): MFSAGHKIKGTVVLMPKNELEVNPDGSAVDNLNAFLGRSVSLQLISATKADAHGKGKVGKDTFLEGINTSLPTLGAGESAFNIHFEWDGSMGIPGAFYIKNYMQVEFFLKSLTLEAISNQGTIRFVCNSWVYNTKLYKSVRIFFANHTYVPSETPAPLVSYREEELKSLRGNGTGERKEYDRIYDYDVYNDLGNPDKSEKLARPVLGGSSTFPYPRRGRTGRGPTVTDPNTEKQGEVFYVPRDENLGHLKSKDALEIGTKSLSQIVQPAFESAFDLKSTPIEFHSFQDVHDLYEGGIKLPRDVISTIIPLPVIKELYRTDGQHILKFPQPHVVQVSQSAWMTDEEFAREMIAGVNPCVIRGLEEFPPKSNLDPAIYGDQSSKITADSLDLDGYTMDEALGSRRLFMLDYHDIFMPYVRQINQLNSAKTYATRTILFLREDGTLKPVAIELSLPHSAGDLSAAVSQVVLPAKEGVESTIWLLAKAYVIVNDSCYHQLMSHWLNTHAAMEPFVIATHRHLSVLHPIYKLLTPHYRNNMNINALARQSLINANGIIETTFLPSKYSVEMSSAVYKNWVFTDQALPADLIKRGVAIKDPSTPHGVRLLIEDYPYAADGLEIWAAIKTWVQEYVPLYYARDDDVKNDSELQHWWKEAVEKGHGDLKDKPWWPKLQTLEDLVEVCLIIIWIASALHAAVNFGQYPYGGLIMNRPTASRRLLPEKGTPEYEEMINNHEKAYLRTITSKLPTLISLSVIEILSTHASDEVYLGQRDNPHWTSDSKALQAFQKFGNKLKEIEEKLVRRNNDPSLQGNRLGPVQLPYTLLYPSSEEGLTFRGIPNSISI
The data set is described as follows: Lipoxygenase (15-LOX) inhibition assay (Cayman LOX inhibitor screening kit). It counts as biochemical, soybean. Particulars: mean ± SD of three experiments. The method, then: Briefly, in a 96-well plate, 10 µl of each test compound (dissolved in DMSO) or vehicle were pre-incubated with 90 µl of 15-LOX enzyme. The reaction was started by addition of 10 µl of substrate (AA) and the plate was shaken for at least 5 min. Then, 100 µl of chromogen supplied with the kit was added to each well to stop the enzymatic reaction and develop the colour. The absorbance was measured at 490 nm using microplate reader.
Therefore, the soybean LOX is most like the mammalian 15-LOX[59].

T1 sequence (P01375 77-233 limits assumed): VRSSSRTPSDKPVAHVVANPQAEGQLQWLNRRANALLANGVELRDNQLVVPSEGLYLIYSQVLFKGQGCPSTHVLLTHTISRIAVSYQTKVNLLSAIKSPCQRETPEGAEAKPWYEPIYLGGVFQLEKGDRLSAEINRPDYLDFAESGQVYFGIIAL
Description for COX-1: (§1) Tested compounds were dissolved in DMSO. […] The COX inhibitor screening assay depends on direct measurement of the amount of PG2α produced in the COX reaction. […] Enzyme catalysis was terminated by addition of 50 µl 1 M HCl and 100 µl of the saturated stannous chloride solution. The PGs are quantified by enzyme immunoassay (EIA) at 410 nm.
(§2) Thus, the newly synthesised compounds were tested for their anti-inflammatory activity against isozymes COX-1 and COX-2, which were determined by the COX-catalysed transformation of AA into PGH2 that was reduced to PGF2α and detected by the EIA[53], as shown in Table 1.
Description for COX-2: as §1, §2

With `CN(C)c1ccc(C=C2C=C(c3ccc(Cl)c(Cl)c3)OC2=O)cc1` [Compound 2c, 5-(3,4-Dichlorophenyl)3-(4-dimethylaminobenzylidene)-furan-2-one], the melting point was in the range of 204 to 206 °C. Further, at TNF-α, inhibition was half-maximal at 8.2 ± 0.1 nM (IC50). Half-maximal inhibition on COX-1 (IC50) required 3930 ± 60 nM. Also, the “times less active than the reference drug indomethacin as COX-1 inhibitor” value on COX-1 (ratio of COX-1 IC50 values) amounted to 39. At COX-2, the IC50 was found to be 420 ± 20 nM and the “Selectivity indexes (SI)” value was 9.36. In addition, half-maximal inhibition at 15-LOX (IC50) required 6130 ± 120 nM.

On to `O=C1NC(c2ccc(Cl)c(Cl)c2)=CC1=Cc1cccc([N+](=O)[O-])c1` [Compound 3b, 5-(3,4-Dichlorophenyl)-3-(3-nitrobenzylidene)-1H-pyrrol-2-one], for which the melting point is above 300 °C. At TNF-α, this compound registered an IC50 of 8.27 ± 0.12 nM. The same compound had an IC50 against COX-1 of 6870 ± 120 nM. For the same compound, on COX-2, the IC50 came out at 390 ± 10 nM and the “Selectivity indexes (SI)” value worked out at 17.62. The compound also came in with an IC50 against 15-LOX of 1870 ± 150 nM.

Compound `CN(C)c1ccc(C=C2C=C(c3ccc(Cl)c(Cl)c3)NC2=O)cc1` [Compound 3c, 5-(3,4-Dichlorophenyl)-3-(4-dimethylaminobenzylidene)-1H-pyrrol-2-one] had a melting point above 300 °C. The same compound gave an IC50 on TNF-α of 6.77 ± 0.12 nM. The compound also yielded an IC50 at COX-1 of 5930 ± 150 nM. Further, on COX-2, the IC50 was 340 ± 10 nM and the “Selectivity indexes (SI)” value was determined as 17.44. In addition, the IC50 on 15-LOX was found to be 2210 ± 980 nM.

The compound `NNC(=O)C(=Cc1cccc([N+](=O)[O-])c1)CC(=O)c1ccc(Cl)c(Cl)c1` [Compound 6b, 4-(3,4-Dichlorophenyl)-2-(3-nitrobenzylidene)-4-oxo-butanehydrazide] returned a melting point of 160 to 162 °C. Besides, the IC50 on TNF-α was 4.1 ± 0.1 nM. The same compound had an IC50 on COX-1 of 10100 ± 150 nM. For the same compound, on COX-2, half-maximal inhibition (IC50) required 80 nM; the “Selectivity indexes (SI)” value turned out to be 125.88; the “COX-2 inhibition, in words (SAR discussion)” value is given as “high activity”. Moreover, 2470 ± 60 nM corresponded to half-maximal inhibition against 15-LOX (IC50).

`O=C(NCc1ccccc1)C(=Cc1ccccc1[N+](=O)[O-])CC(=O)c1ccc(Cl)c(Cl)c1` [Compound 4a, N-benzyl-2-(2-nitrobenzylidene)-4-(3,4-dichlorophenyl)-4-oxobutanamide] displayed a melting point of 250 to 252 °C. This compound yielded an IC50 on TNF-α of 4.77 ± 0.12 nM. In addition, the IC50 against COX-1 came out at 11100 ± 150 nM. Further, on COX-2, the IC50 amounted to 50 nM and the “Selectivity indexes (SI)” value worked out at 221.40. This compound also had an IC50 at 15-LOX of 5470 ± 120 nM.

`CN(C)c1ccc(C=C(CC(=O)c2ccc(Cl)c(Cl)c2)C(=O)NN)cc1` [Compound 6c, 4-(3,4-Dichlorophenyl)-2-(4-dimethylaminobenzylidene)-4-oxo-butanehydrazide] displayed a melting point of 154 to 156 °C. The compound further yielded an IC50 on TNF-α of 6.17 ± 0.06 nM. Half-maximal inhibition on COX-1 (IC50) required 8830 ± 60 nM. Also, on COX-2, the IC50 was 100 ± 10 nM and the “Selectivity indexes (SI)” value is 88.30. This compound also displayed an IC50 at 15-LOX of 3170 ± 60 nM.

`NNC(=O)C(=Cc1ccccc1[N+](=O)[O-])CC(=O)c1ccc(Cl)c(Cl)c1` [Compound 6a, 4-(3,4-Dichlorophenyl)-2-(2-nitrobenzylidene)-4-oxo-butanehydrazide] displayed a melting point of 164 to 166 °C. This compound yielded an IC50 against TNF-α of 5.87 ± 0.12 nM. This compound also returned an IC50 at COX-1 of 9670 ± 60 nM. Besides, at COX-2, the midpoint of inhibition, the IC50, lay at 90 nM; the “Selectivity indexes (SI)” value came to 107.44; the “COX-2 inhibition, in words (SAR discussion)” value is reported as “high activity”. Moreover, the IC50 on 15-LOX was determined as 2830 ± 60 nM.

The compound `CN(C)c1ccc(C=C(CC(=O)c2ccc(Cl)c(Cl)c2)c2n[nH]c(=S)o2)cc1` [Compound 9c, 1-(3,4-Dichlorophenyl)-4-(4-dimethylaminophenyl)-3-(2-thioxo-4,5-dihydro-1,3,4-oxadiazol-5-yl)but-3-en-1-one] displayed a melting point of 162 to 164 °C. On TNF-α, this compound displayed an IC50 of 6.27 ± 0.15 nM. Besides, at COX-1, the IC50 is 8930 ± 60 nM. On COX-2, the IC50 was determined as 220 ± 10 nM and the “Selectivity indexes (SI)” value is given as 40.59. For the same compound, on 15-LOX, the IC50 turned out to be 2000 ± 170 nM.

`O=C1NN(c2ccccc2)C(c2ccc(Cl)c(Cl)c2)=CC1=Cc1cccc([N+](=O)[O-])c1` [Compound 5b, 6-(3,4-Dichlorophenyl)-4-(3-nitrobenzylidene)-1-phenyl-1,4-dihydropyridazin-3(2H)-one]: the melting point was above 300 °C. Besides, on TNF-α, the IC50 stood at 3.27 ± 0.12 nM. Half-maximal inhibition against COX-1 (IC50) was put at 13000 ± 100 nM. Moreover, on COX-2, it took 40 nM to reach half-maximal inhibition (IC50) and the “Selectivity indexes (SI)” value was determined as 325.00. The compound further returned an IC50 on 15-LOX of 2430 ± 120 nM.

Regarding `O=C(CC(=Cc1ccccc1[N+](=O)[O-])c1n[nH]c(=S)o1)c1ccc(Cl)c(Cl)c1` [Compound 9a, 1-(3,4-Dichlorophenyl)-4-(2-nitrophenyl)-3-(2-thioxo-4,5-dihydro-1,3,4-oxadiazol-5-yl)but-3-en-1-one], the melting point is 214 to 216 °C. The compound further returned an IC50 at TNF-α of 5.57 ± 0.06 nM. Besides, the IC50 on COX-1 is 9430 ± 120 nM. Further, on COX-2, the IC50 is 280 ± 10 nM and the “Selectivity indexes (SI)” value is 33.68. The IC50 at 15-LOX worked out at 2070 ± 150 nM.

`O=C(NCc1ccccc1)C(=Cc1cccc([N+](=O)[O-])c1)CC(=O)c1ccc(Cl)c(Cl)c1` [Compound 4b, N-benzyl-2-(3-nitrobenzylidene)-4-(3,4-dichlorophenyl)-4-oxobutanamide] showed a melting point of 124 to 126 °C. The compound further returned a half-inhibitory concentration (IC50) against TNF-α of 3.53 ± 0.12 nM. Moreover, the IC50 against COX-1 worked out at 13300 ± 150 nM. At COX-2, the IC50 came out at 60 nM and the “Selectivity indexes (SI)” value amounted to 222.17. This compound came in with a 50% inhibitory concentration (IC50) on 15-LOX of 5870 ± 60 nM.
